Laboratory results taken from patent EP4631504A1, “COMPOSITION FOR PREVENTION OR TREATMENT OF FABRY'S DISEASE” (Korea Advanced Institute of Science and Technology, priority 2022, dated 2024).
Counter-ions that a name gives are not always drawn.

What was measured:
[1] = test system: Fabry disease vascular endothelial cells; assay: Tube formation experiment with ROCK inhibitors; format: cell-based, human; details: 5 µM
Description: [Table 1] ROCK inhibitors used in the first experiment
Second experiment: To confirm whether decreased tube formation in vascular endothelial cells derived from Fabry disease-induced pluripotent stem cells was rescued by treatment with 7 types of ROCK inhibitors (netarsudil, ripasudil, sovesudil, AT13148, AR13503, VX-210, and […]), a tube formation experiment was conducted (Table 2). [Table 2] Types of ROCK inhibitors used in the second experiment
Matrigel was applied to a 96-well plate which was then stored in a 5% CO2 incubator a 37°C for one day. The next day, each ROCK inhibitor was added to each well at various concentrations (5 µM, 1 µM, 0.5 µM, 0.1 µM, 0.05 µM, and 0.01 µM) together with […] VEGF in EGM-2 media.
10,000 vascular endothelial cells per well were applied onto the solidified Matrigel, and after one day, each well was photographed under a microscope. Then, the total tube length was analyzed using Image J to compare the increase and decrease in tube formation.

Rock2 = Rock2 (Homo sapiens, UniProt O75116); details: cited from earlier work
Rock2, sequence (O75116 whole entry, species assumed): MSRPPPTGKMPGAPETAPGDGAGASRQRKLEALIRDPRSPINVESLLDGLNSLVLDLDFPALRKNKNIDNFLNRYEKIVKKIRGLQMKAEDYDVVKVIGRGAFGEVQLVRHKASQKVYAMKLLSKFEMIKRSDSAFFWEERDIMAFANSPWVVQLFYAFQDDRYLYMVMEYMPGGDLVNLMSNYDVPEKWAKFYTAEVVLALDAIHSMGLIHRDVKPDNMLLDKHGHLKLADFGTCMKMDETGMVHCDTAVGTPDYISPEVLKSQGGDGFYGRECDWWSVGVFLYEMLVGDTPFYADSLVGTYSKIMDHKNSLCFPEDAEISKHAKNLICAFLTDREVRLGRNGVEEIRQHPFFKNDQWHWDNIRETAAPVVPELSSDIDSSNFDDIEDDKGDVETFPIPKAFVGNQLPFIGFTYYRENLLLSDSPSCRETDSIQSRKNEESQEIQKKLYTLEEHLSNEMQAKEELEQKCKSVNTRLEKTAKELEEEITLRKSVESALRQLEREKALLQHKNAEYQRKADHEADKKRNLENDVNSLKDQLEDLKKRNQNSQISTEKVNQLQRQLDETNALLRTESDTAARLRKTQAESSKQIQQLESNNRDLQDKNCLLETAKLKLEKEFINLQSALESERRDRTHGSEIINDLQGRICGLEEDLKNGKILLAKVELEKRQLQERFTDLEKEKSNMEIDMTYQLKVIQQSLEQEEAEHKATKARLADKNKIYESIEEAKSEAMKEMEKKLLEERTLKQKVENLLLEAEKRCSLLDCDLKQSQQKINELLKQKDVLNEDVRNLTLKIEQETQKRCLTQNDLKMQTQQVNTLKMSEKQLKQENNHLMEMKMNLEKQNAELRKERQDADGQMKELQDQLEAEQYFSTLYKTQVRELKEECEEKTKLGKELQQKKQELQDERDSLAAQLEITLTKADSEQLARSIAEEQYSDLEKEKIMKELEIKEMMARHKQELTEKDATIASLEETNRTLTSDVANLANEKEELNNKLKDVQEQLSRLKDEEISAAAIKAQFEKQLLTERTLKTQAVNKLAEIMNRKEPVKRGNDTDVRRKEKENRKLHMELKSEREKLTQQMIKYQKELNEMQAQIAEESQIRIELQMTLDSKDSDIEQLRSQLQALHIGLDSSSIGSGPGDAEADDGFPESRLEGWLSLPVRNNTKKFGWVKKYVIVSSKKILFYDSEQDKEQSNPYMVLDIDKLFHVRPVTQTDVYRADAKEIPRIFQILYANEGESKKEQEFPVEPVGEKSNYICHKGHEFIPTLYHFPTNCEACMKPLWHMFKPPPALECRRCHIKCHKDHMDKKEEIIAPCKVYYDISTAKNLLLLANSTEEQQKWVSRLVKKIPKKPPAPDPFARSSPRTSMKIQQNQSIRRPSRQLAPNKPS

Rock1 = Rock1 (Homo sapiens, UniProt Q13464); details: cited from earlier work
Rock1, sequence (Q13464 whole entry, species assumed): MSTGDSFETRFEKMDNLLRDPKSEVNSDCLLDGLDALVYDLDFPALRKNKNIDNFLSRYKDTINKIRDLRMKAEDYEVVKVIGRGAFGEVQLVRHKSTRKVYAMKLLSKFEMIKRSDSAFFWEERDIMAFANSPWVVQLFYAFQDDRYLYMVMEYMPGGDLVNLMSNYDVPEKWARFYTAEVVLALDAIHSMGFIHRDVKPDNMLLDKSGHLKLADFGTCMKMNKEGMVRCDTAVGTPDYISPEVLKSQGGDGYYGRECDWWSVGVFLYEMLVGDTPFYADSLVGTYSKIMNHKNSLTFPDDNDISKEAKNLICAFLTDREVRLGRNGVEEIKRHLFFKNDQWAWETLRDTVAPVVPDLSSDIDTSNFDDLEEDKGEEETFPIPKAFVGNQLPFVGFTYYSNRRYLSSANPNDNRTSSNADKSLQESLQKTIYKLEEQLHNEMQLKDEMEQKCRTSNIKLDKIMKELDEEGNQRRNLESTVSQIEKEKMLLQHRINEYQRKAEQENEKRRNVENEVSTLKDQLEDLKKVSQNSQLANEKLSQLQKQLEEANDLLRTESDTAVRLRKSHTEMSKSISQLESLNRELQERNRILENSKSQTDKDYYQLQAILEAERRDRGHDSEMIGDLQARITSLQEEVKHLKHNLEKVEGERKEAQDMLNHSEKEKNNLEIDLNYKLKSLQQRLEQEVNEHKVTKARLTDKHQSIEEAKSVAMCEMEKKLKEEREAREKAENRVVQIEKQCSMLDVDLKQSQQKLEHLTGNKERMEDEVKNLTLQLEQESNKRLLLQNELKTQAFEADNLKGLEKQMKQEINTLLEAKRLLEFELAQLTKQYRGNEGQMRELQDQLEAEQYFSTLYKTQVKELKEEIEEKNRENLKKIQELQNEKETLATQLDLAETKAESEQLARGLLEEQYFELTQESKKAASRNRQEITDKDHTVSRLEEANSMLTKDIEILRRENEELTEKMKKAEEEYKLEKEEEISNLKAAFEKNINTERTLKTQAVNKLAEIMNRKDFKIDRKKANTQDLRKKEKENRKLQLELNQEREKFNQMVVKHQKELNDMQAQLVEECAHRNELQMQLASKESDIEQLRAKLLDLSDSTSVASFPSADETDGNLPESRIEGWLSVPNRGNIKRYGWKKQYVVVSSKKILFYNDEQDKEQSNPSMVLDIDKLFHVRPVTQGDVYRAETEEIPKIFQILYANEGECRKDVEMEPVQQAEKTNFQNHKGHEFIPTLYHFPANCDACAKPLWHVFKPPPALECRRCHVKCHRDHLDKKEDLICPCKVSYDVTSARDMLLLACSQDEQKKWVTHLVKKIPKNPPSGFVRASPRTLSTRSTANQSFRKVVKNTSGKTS

FD-VECs [2] = assay: Tube-like structure formation assay of FD-VECs; format: cell-based, human; details: for tube formation ability: 0.5, 1, and 5 µM, versus DMSO control
Description: FD-iPSC lines that were generated from fibroblasts of three FD patients with a GLA variant were used. A wild-type (WT) iPSC line derived from foreskin fibroblasts and a FD1 isogenic iPSC line were used as controls. Human iPSCs (hiPSCs) were maintained in mTeSR1 medium ([…] Technologies, Vancouver, Canada) on culture plates precoated with Corning Matrigel® hESC-Qualified Matrix. The cells were maintained at 37°C in a 5% CO2 incubator. After 7 days of culture, hiPSC colonies were split at a 1:50 ratio using accutase solution (eBioscience, San Diego, CA, USA) and incubated under the same culture conditions for expansion.
Human iPSCs were differentiated into VECs as described previously, with further optimization. Briefly, hiPSCs were transferred to dishes coated with Matrigel® (BD Biosciences, Franklin Lakes, NJ, USA) and cultured for 2 days in mTESR1 medium ([…] Technologies) at 37°C and 5% CO2. Subsequently, the cells were cultured for a further 2 days in VEC medium (RPMI (HyClone, Logan, MI, USA), 1% B27 (Invitrogen, Carlsbad, CA, USA), and penicillin/streptomycin (Invitrogen)) supplemented with 50 ng/mL Activin A (PeproTech, Rocky Hill, NJ, USA) and 20 ng/mL BMP4 (PeproTech), and 3 µM CHIR990921 (Sigma, St. Louis, MO) at 37°C and 5% CO2. Next, the cells were cultured for 3 days in VEC medium containing 50 ng/mL VEGF-A (PeproTech) and 50 ng/mL bFGF, at 37°C and 5% CO2. To differentiate the vascular progenitors into VECs, CD31^+ cells were sorted from the differentiated cells by MACS using CD31^+ Dynabeads (Thermo Fisher Scientific, Waltham, MA, USA). The CD31^+ cells were transferred to gelatin-coated plates and incubated for 3 days in EGM-2 medium (Lonza, Basel, Switzerland) supplemented with 100 ng/mL VEGF-A and 50 ng/mL bFGF, at 37°C and 5% CO2. The culture medium was changed daily. Finally, the vascular progenitors were cultured in EGM-2 medium without growth factors for 4 days with daily medium change.
To screen for clinical compounds that could rescue FD-VEC dysfunction, VECs were seeded onto gelatin-coated 96-well plates (SPL Life Sciences, Pocheon, Korea) at a density of 3 × 10^3 cells/cm^2 and maintained in EGM-2 medium without growth factors for 24 hours. […] Subsequently, it was examined whether FD-VECs treated with each selected compound could form tube-like structures on Matrigel®-coated plates. The tube-like structure forming assay was repeated at least three times using different concentrations of each selected compound (0.5, 1, and 5 µM).
FD-VECs were dissociated after treatment with Accutase (eBioscience) at 37°C for 5 min. Dissociated cells (1 × 10^4) were transferred to Matrigel® matrix (BD Biosciences) in EGM-2 medium supplemented with 100 ng/mL VEGF-A, and then incubated at 37°C and 5% CO2 for 24 hours. Images of the vascular tube-like structures were taken using an inverted microscope (Olympus, Tokyo, Japan). Total tube lengths were measured using ImageJ software, which was freely provided by the […], and its Angiogenesis Analyzer plugin (Carpentier, 2012).

[3] = test system: p-SMAD2, SMAD2, TSP1, KDR, eNOS; assay: Western blot analysis of p-SMAD2, TSP1, KDR and eNOS in FD-VECs; format: cell-based, human; details: compared to non-treated FD-VECs
EndMT of FD-VECs = assay: EndMT-associated factors in FD-VECs (Western blot, immunostaining); format: cell-based, human
Excerpt: Hyperactive SMAD2 signaling induces EndMT in VECs, thereby reducing angiogenic functionality. […] Before drug treatment, the present inventors performed bulk RNA sequencing of FD-VECs and FD(c)-VECs to examine the mechanism underlying the defective vasculopathy of FD-VECs.

FD-VECs [4] = assay: ROS fluorescence intensity in FD-VECs; format: cell-based, human
FD-VECs [5] = assay: Extracellular flux analysis of oxygen consumption rate (OCR); format: cell-based, human
[6] = test system: FD mice (Gla^-/-/TSP1^Tg); assay: Echocardiography of FD mice after oral administration; format: in vivo; details: 10 or 30 mg/kg/day for 6 months
Excerpt: Therefore, the present inventors hypothesized that Gla^-/- mice expressing human TSP1 (Gla^-/-/TSP1^Tg; hereinafter referred to as FD mice) might be an effective animal model for studying FD-related vasculopathy. […] LVH is known to occur in up to half of males and one-third of females in FD patients (Kampmann C, Linhart A, Baehner F, Palecek T, Wiethoff CM, Miebach E, Whybra C, Gal A, Bultas J, Beck M (2008) Onset and progression of the Anderson-Fabry disease related cardiomyopathy. International Journal of Cardiology 130: 367-73). Thus, the present inventors investigated the cardiac functionality in each mouse group via echocardiography.
To this end, FD-mice (Gla^-/-/TSP1^Tg) were produced by crossing transgenic mice expressing human TSP1 with Gla^-/- mice. The produced mice were then orally administered lomerizine (10 or 30 mg/kg/day) for 6 months (FIG. 18A).

[7] = test system: FD mice (Gla^-/-/TSP1^Tg); assay: Sweat secretion analysis in FD mice; format: in vivo; details: oral, 10 or 30 mg/kg/day for 6 months
[8] = test system: FD mice (Gla^-/-/TSP1^Tg); assay: Heat tolerance test (paw withdrawal latency) in FD mice; format: in vivo; details: oral, 10 or 30 mg/kg/day for 6 months
[9] = test system: FD mice (Gla^-/-/TSP1^Tg); assay: Immunohistochemistry and Western blot of renal tissues of FD mice; format: in vivo; details: oral administration

For `NC[C@@H](C(=O)Nc1ccc2cnccc2c1)c1ccc(CO)cc1` [AR-13503], the “tube formation ability of Fabry disease vascular endothelial cells” value [1] is given as “increased the tube formation ability” and the IC50 (Rock2) is given as 4.2 nM.

In the case of `C[C@@H](N)[C@H]1CC[C@H](C(=O)Nc2ccncc2)CC1` [Y27632], the “tube formation ability of Fabry disease vascular endothelial cells” value [1] is reported as “effective in improving the impaired tube formation ability”.

In the case of `NC[C@@](O)(c1ccc(Cl)cc1)c1ccc(-c2cn[nH]c2)cc1` [AT-13148], the “tube formation ability of Fabry disease vascular endothelial cells” value [1] is listed as “increased the tube formation ability”, the IC50 (Rock1) is listed as 6 nM and the IC50 (Rock2) is listed as 4 nM.

In the case of `NC(=O)c1ccc(-c2nc(-c3ccc4c(c3)OCCO4)c(-c3ccccn3)[nH]2)cc1` [D-4476], the tube formation ability (FD-VECs [2]) is reported as “relatively higher tube formation ability”.

With `CC1=C(C(=O)Nc2cc3cn[nH]c3cc2F)C(c2ccc(C(F)(F)F)cc2)CC(=O)N1` (stereo not shown) [GSK429286A] the “tube formation ability of Fabry disease vascular endothelial cells” value [1] was “effective in improving the impaired tube formation ability”.

For Netarsudil mesylate, the “tube formation ability of Fabry disease vascular endothelial cells” value [1] was “increased the tube formation ability”.

For `CCOC(CN1CCN(CC(C)C(=O)c2ccccc2)CC1)c1ccccc1` (stereo not shown) [eprazinone], the tube formation ability (FD-VECs [2]) was “relatively higher tube formation ability”.

For `NC(=O)c1ccc(-c2nc(-c3ccc4c(c3)OCO4)c(-c3ccccn3)[nH]2)cc1` [SB431542], the “tube formation ability of Fabry disease vascular endothelial cells” value [1] was “increased tube formation ability”.

In the case of `COc1ccc(CN2CCN(C(c3ccc(F)cc3)c3ccc(F)cc3)CC2)c(OC)c1OC` [lomerizine], the tube formation ability (FD-VECs [2]) is reported as “relatively higher tube formation ability”, the optimal concentration (FD-VECs [2]; based on tube formation of FD-VECs) is reported as 1 µM and the “tube formation ability of VECs derived from FD-iPSC lines with distinct GLA mutations” value (FD-VECs [2]; fasudil at 5 µM) is reported as “enhanced”. The “total tube length of FD-VECs” value (FD-VECs [2]; tube formation assay, versus untreated FD-VECs) was “significantly increased”, the “levels of KDR and eNOS” value [3] was “increased” and the “levels of p-SMAD2 and TSP1” value [3] was “reduced”. For the same molecule, the “levels of mesenchymal-related markers (COL1A1, ACTA2, SNAI1, and TWIST)” value (EndMT of FD-VECs; Western blot) was “reduced”, the “protein level of CD31” value (EndMT of FD-VECs; Western blot) was “increased” and the “fluorescence intensities of EndMT-related factors (ACTA2, SNAI1, COL1A1)” value (EndMT of FD-VECs; immunostaining) was “reduced”. The “level of ROS” value (FD-VECs [4]) was “reduced the excess ROS produced in FD-VECs to the same level as that in WT- and FD(c)-VECs”, the maximal respiration (FD-VECs [5]) was “slight decrease” and the “LV mass/BW” value [6] was “reduced”. The “cardiac ejection fraction, fractional shortening, and cardiac output” value [6] was “significant improvements”, the “anhidrosis (number of sweat spots)” value [7] was “rescued this phenotype” and the “heat insensitivity (paw withdrawal latency)” value [8] was “rescued this phenotype”. For the same molecule, the “protein levels of fibrotic and inflammatory markers in renal tissues” value ([9]; Western blot) was “reduced”, the “CD31+ACTA2+ cells in renal tissues” value ([9]; immunohistochemistry) was “reduced this increase” and the “expression levels of F4/80 and LCN2 in renal tissues” value ([9]; immunohistochemistry) was “reduced”. The “expression of COL1A1 in renal tissues” value ([9]; immunohistochemistry) was “downregulated”.

For `C[C@@H](N)c1ccc(C(=O)Nc2ccnc3[nH]ccc23)cc1` [Y39983], the “tube formation ability of Fabry disease vascular endothelial cells” value [1] was “effective in improving the impaired tube formation ability”.

In the case of `Cc1c(Cl)cccc1Nc1ccccc1C(=O)O` [tolfenamic acid], the tube formation ability (FD-VECs [2]) is reported as “relatively higher tube formation ability”.

With `O=C(Nc1ccncc1)c1cc([N+](=O)[O-])ccc1Cl` [T0070907] the tube formation ability (FD-VECs [2]) was “relatively higher tube formation ability”.

In the case of `C[C@H]1CNCCCN1S(=O)(=O)c1cccc2cncc(F)c12` [Ripasudil hydrochloride hydrate], the “tube formation ability of Fabry disease vascular endothelial cells” value [1] is reported as “increased the tube formation ability”.

For `CCCOC(=O)c1cccc(-c2cc(C(=O)Nc3ccncc3F)ccc2CN)c1` [AMA-0076, Sovesudil], the “tube formation ability of Fabry disease vascular endothelial cells” value [1] is listed as “increased the tube formation ability”, the IC50 (Rock1) is listed as 3.7 nM and the IC50 (Rock2) is listed as 23 nM.
